Where two headings read alike, the source gives them in different places.
Assays:
[1] = target: T1, NOX (NADH oxidase / ubiquinol oxidase) from HeLa cells (Homo sapiens, UniProt Q16206); details: NOX partially purified from surface of HeLa cells; cited from earlier work
T1 construct: other: HeLa NOX preparation; other: NOX partially purified from surface of HeLa cells
T1 sequence (Q16206 1-610): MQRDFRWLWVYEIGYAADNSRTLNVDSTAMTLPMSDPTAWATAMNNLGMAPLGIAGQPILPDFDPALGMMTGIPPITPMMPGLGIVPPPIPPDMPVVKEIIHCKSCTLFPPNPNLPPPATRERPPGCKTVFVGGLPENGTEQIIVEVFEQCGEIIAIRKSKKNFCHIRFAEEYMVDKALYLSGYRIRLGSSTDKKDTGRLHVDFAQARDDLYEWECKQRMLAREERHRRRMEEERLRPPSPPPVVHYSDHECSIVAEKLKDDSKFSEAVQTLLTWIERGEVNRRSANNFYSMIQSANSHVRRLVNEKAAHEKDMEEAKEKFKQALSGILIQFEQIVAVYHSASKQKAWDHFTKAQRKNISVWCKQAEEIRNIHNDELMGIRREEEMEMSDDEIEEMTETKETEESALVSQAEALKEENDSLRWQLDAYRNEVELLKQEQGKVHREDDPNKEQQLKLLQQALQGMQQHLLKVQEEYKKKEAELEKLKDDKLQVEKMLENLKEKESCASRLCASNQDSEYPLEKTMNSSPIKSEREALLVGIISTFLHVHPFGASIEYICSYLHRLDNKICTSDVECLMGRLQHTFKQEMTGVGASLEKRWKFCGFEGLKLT

[2] = target: T1, NOX (NADH oxidase / ubiquinol oxidase) from HeLa cells; assay: NOX-catalyzed oxidation of ubiquinol (preparation solubilized from HeLa cells); format: biochemical; details: HeLa NOX preparation; for EC50: read-out: EC50 inhibition of NOX-catalyzed oxidation of ubiquinol
Protocol: (§1) FIG. 1. Oxidation of reduced ubiquinol at 37° C. by an enzymatic preparation with NADH oxidase activity solubilized from HeLa cells by low pH treatmnent, followed by heat and proteinase K. The disappearance of reduced ubiquinol was determined from the increase in absorbance at 410 nm as a function of time in the presence of 1 mg of the HeLa protein. The concentration of quinol was 50 mM, pH 7.
(§2) Ubiquinol oxidation was estimated based on increase in absorbance at 410 nm for ubiquinone (FIG. 1).

[3] = tested on: T2, NOX (NADH oxidase / ubiquinol oxidase) from HeLa cells; details: read-out: Km for reduced Q10H2; NOX partially purified from surface of HeLa cells; heading: Km for reduced Q10H2; cited from earlier work
T2 construct: rows headed: Km for quinol; other: substrate of NOX-catalyzed oxidation; Response of NOX-catalyzed oxidation of ubiquinol to agent; other: HeLa NOX preparation; Km for reduced Q10H2; other: NOX partially purified from surface of HeLa cells

[4] = tested on: T2, NOX (NADH oxidase / ubiquinol oxidase) from HeLa cells; assay: NOX-catalyzed oxidation of ubiquinol (preparation solubilized from HeLa cells); format: biochemical, human; details: read-out: Km for quinol; substrate of NOX-catalyzed oxidation; heading: Km for quinol
Protocol: as §1, §2

AR-NOX in sera = assay: Cytochrome c reduction by sera and inhibition by SOD or ubiquinone (Q10); format: biochemical, human
Protocol: (§3) The generation of superoxide radical was determined by assaying the rate of superoxide dismutase (SOD)-inhibitable cytochrome c reduction (Mayo and Curnette, 1990, Meth Enzymol. 186:567-575 and Butler et al., 1982, J. Biol. Chem. 257:10747-10750). The cytochrome c was from horse heart mitochondria (type VI, Sigma) and was dissolved in PBSG buffer (see below) to make a solution with a concentration of 1 mg/ml. Air-saturated reaction mixtures of […] cytochrome c stock solution and […] of a cell suspension (suspended in PBSG buffer) to give a final concentration of ˜5×10^6 cells/ml were added to 2 ml of PBSG buffer (138 mM NaCl, 2.7 mM KCl, 8.1 mM Na2HHPO4, pH 7.4 supplemented with 0.9 mM CaCl2, and 7.5 mM glucose and contained in plastic cuvettes. The formation of reduced cytochrome c was measured in the presence and absence of SOD (15 mg, Sigma) or capsaicin (2.5 mM) by comparing the absorbance of the mixture at 550 nm-540 nm. Superoxide formation was stimulated by using a handheld UV light (254 nm, 200 mw/cm^2). The extent of cytochrome c reduction was monitored spectrophotometrically at 550 nm every ten sec with gentle mixing between readings. Data were analyzed from the slope of the change in a 550 nm-540 nm before and after UV and then again after SOD or capsaicin was added. Data were expressed as nmoles O2[…]/10^6 cells using a value of SM550nm=19.1×10^3 M^−1 cm^−1.
Cytochrome c reduction by sera was assayed as for cells except that the samples were not mixed in between readings. The Q10 was added as an ethanolic solution.
Sera were obtained from the patient population of St. Elizabeth Hospital, Lafayette, Ind. and the resident population of St. Anthony's Health Care, Lafayette, Ind. Confidentiality of medical records was assured by assigning a number to each sample.

MCF 10A = assay: UV-induced superoxide production (cytochrome c reduction) by MCF 10A cells; format: cell-based, human
Protocol: as §3

[5] = target: T3, partially-purified preparation of the oxidase from HeLa cells (Homo sapiens, UniProt Q16206); assay: UV-induced superoxide generation by partially-purified oxidase from HeLa cells; format: biochemical
T3 construct: endogenous in cells; host or cells: HeLa
T3 sequence (Q16206 1-610): T1 sequence (Q16206 1-610)

HeLa S = assay: UV-induced superoxide production (cytochrome c reduction) by HeLa S cells; format: cell-based, human
Protocol: as §3

BT-20 = assay: UV-induced superoxide production (cytochrome c reduction) by BT-20 cells; format: cell-based, human
Protocol: as §3

SMILES: Cc1ccc(S(=O)(=O)NC(=O)Nc2ccc(Cl)cc2)cc1 [LY181984, N-(4-methylphenylsulfonyl)-N′-(4-chlorophenyl)urea]
- Inhibition of ubiquinol oxidase activity [1]: inhibited competitively
- Type of inhibition of NOX-catalyzed oxidation of ubiquinol [2]: competitive
- EC50 [2]: 30 nM

SMILES: COc1c(O)c(C)c(C/C=C(\C)CC/C=C(\C)CC/C=C(\C)CC/C=C(\C)CC/C=C(\C)CC/C=C(\C)CC/C=C(\C)CC/C=C(\C)CC/C=C(\C)CCC=C(C)C)c(O)c1OC [quinol]
- Km [3]: 30 µM
- Km [4]: 33 µM

SMILES: COC1=C(OC)C(=O)C(C/C=C(\C)CC/C=C(\C)CC/C=C(\C)CC/C=C(\C)CC/C=C(\C)CC/C=C(\C)CC/C=C(\C)CC/C=C(\C)CC/C=C(\C)CCC=C(C)C)=C(C)C1=O [Q10]
- Effect on superoxide-generating, aging-related enzymatic activity of sera (AR-NOX in sera; 0.1 mM coenzyme Q, sera of elderly individuals 80-94 years): substantially reduced
- Inhibition of reduction of cytochrome c by sera of aged patients, on average (AR-NOX in sera; sera of aged patients, average): 36%
- Reduction of cytochrome c by sera, + 45 mg Q10 (AR-NOX in sera; sera of individuals 83-95 years (n = 5)): 2.5 ± 1.4 nmoles/min/ml/sera

SMILES: COc1cc(CNC(=O)CCCC/C=C/C(C)C)ccc1O [capsaicin, 8-methyl-N-vanillyl-6-noneamide]
- Effect on UV-induced generation of superoxide (MCF 10A; MCF10A): unaffected
- Reduction of cytochrome c as a measure of superoxide formation, After UV, + Capsaicin (MCF 10A; MCF 10A, 10 minutes of 254 nm UV, 2.5 mM capsaicin in DMSO, corrected for DMSO blank): 7.2 nmoles/min/10^6 cells
- Effect on UV-induced superoxide generation by partially-purified oxidase [5]: inhibited
- Effect on response to UV (superoxide generation) (HeLa S; HeLa): inhibited
- Reduction of cytochrome c as a measure of superoxide formation, After UV, + Capsaicin (HeLa S; HeLa S, 10 minutes of 254 nm UV, 2.5 mM capsaicin in DMSO, corrected for DMSO blank): 0.8 nmoles/min/10^6 cells
- Effect on response to UV (superoxide generation) (BT-20): inhibited
- Reduction of cytochrome c as a measure of superoxide formation, After UV, + Capsaicin (BT-20; 10 minutes of 254 nm UV, 2.5 mM capsaicin in DMSO, corrected for DMSO blank): −3.7 nmoles/min/10^6 cells
- Inhibition of ubiquinol oxidase activity [1]: inhibited competitively
- Type of inhibition of NOX-catalyzed oxidation of ubiquinol [2]: competitive
- EC50 [2]: 1 nM

— US6878514B1, “Methods for identifying agents that inhibit serum aging factors and uses and compositions thereof” (Purdue Research Foundation, priority 1999, dated 2005)
